ChEMBL document CHEMBL5260814, “Design strategies in the prodrugs of HIV-1 protease inhibitors to improve the pharmaceutical properties” (Eur J Med Chem, 2017)

Columns and labels:
P-glycoprotein = experiment: Efflux ratio of apparent permeability across basal to apical membrane over apical to basal membrane in human Caco-2 cells in absence of P-glycoprotein; assay type: ADME, cell-based
[1] = Metabolic stability in rat liver microsome assessed as half life […]; assay type: ADME; details: liver microsomes
[2] = Efflux ratio of apparent permeability across basal to apical membrane over apical to basal membrane in human Caco-2 cells; assay type: ADME, cell-based
[3] = Prodrug conversion in human serum at 50 uM using glycylprolyl-para-nitroanilide as substrate measured for 1 hr relative to control; assay type: ADME, cell-free
[4] = Prodrug conversion in human serum at 50 uM using glycylprolyl-para-nitroanilide as substrate measured for 4 hrs relative to control; assay type: ADME, cell-free
[5] = AUC in rat at 5 mg/kg, po; assay type: ADME, organism-based; set-up: dose 5 mg/kg, route po; details: in vivo
[6] = Stability of compound in DPBS buffer at pH 7.4 assessed as half life measured for 48 hrs; assay type: physicochemical
[7] = Stability of compound in human Caco-2 cells assessed as half life measured for 48 hrs; assay type: ADME, cell-based
[8] = Aqueous solubility of compound; assay type: physicochemical; details: buffer
[9] = Solubility of compound at pH at 1 to 8; assay type: physicochemical
[10] = Half life in calf; assay type: ADME, Bos taurus; details: cattle
[11] = Stability of compound assessed as half life at pH 2; assay type: physicochemical; details: buffer
[12] = Stability of compound in PBS buffer at pH 7.4 assessed as half life; assay type: physicochemical
CEM-SS = experiment: Cytotoxicity against human CEM-SS cells assessed as inhibition of cell growth; assay type: functional
[13] = Metabolic stability in rat plasma assessed as half life at 0.2 mg/kg, po; assay type: ADME
[14] = Efflux ratio of apparent permeability across apical to basolateral to basolateral to apical side in MDCK1 cells; assay type: ADME, cell-based

## CC(C)[C@@H](N)C(=O)O[C@H](CN1C[C@H]2CCCC[C@H]2C[C@H]1C(=O)NC(C)(C)C)[C@H](Cc1ccccc1)NC(=O)[C@H](CC(N)=O)NC(=O)c1ccc2ccccc2n1
P-glycoprotein
  efflux ratio: 1.2
[1]
  half-life: 0.933 h

## CC(C)[C@H](N)C(=O)N[C@@H](C(=O)O[C@H](CN1C[C@H]2CCCC[C@H]2C[C@H]1C(=O)NC(C)(C)C)[C@H](Cc1ccccc1)NC(=O)[C@H](CC(N)=O)NC(=O)c1ccc2ccccc2n1)C(C)C
P-glycoprotein
  efflux ratio: 1.2
[1]
  half-life: 2.97 h

## COC(=O)N[C@H](C(=O)N[C@@H](Cc1ccccc1)[C@@H](O)CN(Cc1ccc(-c2ccccn2)cc1)NC(=O)[C@@H](NC(=O)OC)C(C)(C)C)C(C)(C)C [ATAZANAVIR]
[2]
  efflux ratio: 12

## CC(C)CN(C[C@@H](O)[C@H](Cc1ccccc1)NC(=O)O[C@H]1CO[C@H]2OCC[C@H]21)S(=O)(=O)c1ccc(CNC(=O)[C@@H]2CCCN2C(=O)[C@@H](N)C(C)C)cc1
[3]
  Drug metabolism: 2%
[4]
  Drug metabolism: 2%

## CCCC(O[C@@H](C[C@H](Cc1ccccc1)NC(=O)[C@@H](NC(=O)N(C)Cc1csc(C(C)C)n1)C(C)C)[C@H](Cc1ccccc1)NC(=O)OCc1cncs1)OP(=O)([O-])[O-].[Na+].[Na+] (some centres undefined)
[5]
  AUC: 450 ng·h/mL

## CC(C)(C)NC(=O)[C@@H]1C[C@@H]2CCCC[C@@H]2CN1C[C@@H](OC(=O)CCC(=O)OCC(O)C1OC(=O)C(O)=C1O)[C@H](Cc1ccccc1)NC(=O)[C@H](CC(N)=O)NC(=O)c1ccc2ccccc2n1 (some centres undefined)
[6]
  half-life: 9.65 h
[7]
  half-life: 5.73 h

## Cc1cccc(C)c1OCC(=O)N[C@@H](Cc1ccccc1)[C@H](C[C@H](Cc1ccccc1)NC(=O)[C@H](C(C)C)N1CCCNC1=O)OCOP(=O)([O-])[O-].[Na+].[Na+]
[8]
  solubility: > 5000 µg/mL
[5]
  AUC: 19650 ng·h/mL

## CC(C)CN(C[C@@H](OP(=O)(O)O)[C@H](Cc1ccccc1)NC(=O)O[C@H]1CCOC1)S(=O)(=O)c1ccc(N)cc1 [FOSAMPRENAVIR]
[9]
  solubility: > 3000 µg/mL

## CC(C)c1nc(CN(C)C(=O)N[C@H](C(=O)N[C@@H](Cc2ccccc2)C[C@H](OC(OP(=O)([O-])[O-])C(C)C)[C@H](Cc2ccccc2)NC(=O)OCc2cncs2)C(C)C)cs1.[Na+].[Na+] (some centres undefined)
[10]
  half-life: > 0.5 h

## CC(O[C@@H](C[C@H](Cc1ccccc1)NC(=O)[C@@H](NC(=O)N(C)Cc1csc(C(C)C)n1)C(C)C)[C@H](Cc1ccccc1)NC(=O)OCc1cncs1)OP(=O)([O-])[O-].[Na+].[Na+] (some centres undefined)
[8]
  solubility: > 5000 µg/mL
[11]
  half-life: < 0.25 h
[5]
  AUC: 630 ng·h/mL

## Cc1cccc(C)c1OCC(=O)N[C@@H](Cc1ccccc1)[C@H](O)C(=O)N1CSC(C)(C)[C@H]1C(=O)NC(C)(C)C
[12]
  half-life: 4 min

## CC(C)[C@H](N)C(=O)O[C@H](CN1C[C@H]2CCCC[C@H]2C[C@H]1C(=O)NC(C)(C)C)[C@H](Cc1ccccc1)NC(=O)[C@H](CC(N)=O)NC(=O)c1ccc2ccccc2n1
P-glycoprotein
  efflux ratio: 1.2
[1]
  half-life: 0.783 h

## CCCCCCCCCCCCCCCC(=O)OCC(COC(=O)CCCCCCCCCCCCCCC)OC(=O)CCC(=O)O[C@H](CN1C[C@H]2CCCC[C@H]2C[C@H]1C(=O)NC(C)(C)C)[C@H](Cc1ccccc1)NC(=O)[C@H](CC(N)=O)NC(=O)c1ccc2ccccc2n1
CEM-SS
  CC50: > 100 µM

## CC(C)c1nc(CN(C)C(=O)N[C@H](C(=O)N[C@@H](Cc2ccccc2)C[C@H](OCOP(=O)([O-])[O-])[C@H](Cc2ccccc2)NC(=O)OCc2cncs2)C(C)C)cs1.[Na+].[Na+]
[8]
  solubility: > 5000 µg/mL
[10]
  half-life: 0.117 h
[5]
  AUC: 460 ng·h/mL

## CC(C)[C@H](N)C(=O)N[C@H](C(=O)O[C@H](CN1C[C@H]2CCCC[C@H]2C[C@H]1C(=O)NC(C)(C)C)[C@H](Cc1ccccc1)NC(=O)[C@H](CC(N)=O)NC(=O)c1ccc2ccccc2n1)C(C)C
P-glycoprotein
  efflux ratio: 1.2
[1]
  half-life: 1.48 h
[13]
  half-life: 7.8 h
[14]
  Ratio: 2.1

## CCCCCCCC/C=C\CCCCCCCC(=O)OCC(COC(=O)CCCCCCC/C=C\CCCCCCCC)OC(=O)CCC(=O)O[C@H](CN1C[C@H]2CCCC[C@H]2C[C@H]1C(=O)NC(C)(C)C)[C@H](Cc1ccccc1)NC(=O)[C@H](CC(N)=O)NC(=O)c1ccc2ccccc2n1
CEM-SS
  CC50: > 100 µM
